From patent publication US20110294901A1, “FINELY PULVERIZED PHARMACEUTICAL COMPOSITION” (priority 2009, published 2011)

Assays:
[1] = Particle size measurement with a particle size distribution measuring device (Microtruck X100); type: physicochemical
Experimental: Preferably, the particles of the drug contained in the composition according to the present invention have a cumulative 50% particle diameter of not more than 1.5 μm and a cumulative 90% particle diameter of not more than 3.0 μm. More preferably, the cumulative 50% particle diameter and the cumulative 90% particle diameter are not more than 1.0 μm and not more than 2.0 μm, respectively. In the present invention, when a cumulative curve is determined by presuming the total volume of a powder population, of which the particle size distribution is analyzed, to be 100%, the particle diameter of a point at which the cumulative curve is 50% and the particle diameter of a point at which the cumulative curve is 90% are “cumulative 50% particle diameter” and “cumulative 90% particle diameter” (μm), respectively.
The diameters of drug particles obtained by the grinding can be measured by a laser diffraction/scattering-type particle size distribution measuring machine. Specifically, for example, Microtruck (tradename) sold by NIKKISO Co., Ltd. is preferred. […]
The cumulative 50% particle diameter of bulk drug particles in the fine granules in Examples 4 and 5 and Comparative Examples 3 to 5 was measured with a particle size distribution measuring device (manufacturer: NIKKISO Co., Ltd., model: Mircotruck X100).

[2] = Dissolution test (1), paddle method, 1% aqueous polysorbate 80; type: physicochemical; conditions: three hr after the start of the dissolution; 50 mg drug, 100 rpm, 900 mL 1% aqueous polysorbate 80
Experimental: A dissolution test was carried out for the suspension produced in Example 1 (grinding conditions 3) and a liquid obtained by suspending the ground bulk drug obtained in Comparative Example 1 in water.
Each of the suspensions in an amount corresponding to 50 mg of the 22β-methoxyolean-12-ene-3β,24(4β)-diol bulk drug was accurately weighed, and a test was carried out by a dissolution test method, second method (paddle method), specified in Japanese Pharmacopoeia, at a rotation speed of 100 rpm (rotation speed of paddle) using 900 mL of a 1% aqueous polysorbate 80 solution as a test solution. After 15 min, 30 min, 60 min, and 180 min from the start of dissolution, 5 mL of the test solution was collected and was filtered by a membrane filter having a pore diameter of 0.2 μm to give measurement samples. The samples were analyzed by high-performance liquid chromatography (manufacturer: Shimadzu Seisakusho Ltd., model:LC-10ATvp) to determine dissolution rate for each sample.

cumulative 50% particle diameter ([1]; bulk drug before grinding)	dissolution rate [2]	cumulative 50% particle diameter of the ground bulk drug ([1]; ground with jet mill at 0.54 MPa, dispersed in 0.01% aqueous sodium laurylsulfate solution)	SMILES
about 50 μm	–	–	CO[C@@H]1CC(C)(C)C[C@H]2C3=CC[C@@H]4[C@@]5(C)CC[C@H](O)[C@](C)(CO)[C@@H]5CC[C@@]4(C)[C@]3(C)CC[C@@]12C [22β-methoxyolean-12-ene-3β,24(4β)-diol]
–	10%	2.5 μm	CO[C@@H]1CC(C)(C)C[C@H]2C3=CC[C@@H]4[C@@]5(C)CC[C@H](O)[C@](C)(CO)[C@@H]5CC[C@@]4(C)[C@]3(C)CC[C@@]12C [Comparative Example 1, 22β-Methoxyolean-12-ene-3β, 24(4β)-diol]
